What was measured:
[1] = Table 1 characteristics, from references; cited from earlier work
[2] = tested on: SIV-specific CD8+ T cell responses; test: IFNγ ELISPOT of epitope-specific CD8+ T cell responses in DNA-immunized / SIV-infected macaques; type: in vivo, rhesus macaques; conditions: for Epitope-specific responses, Group A monkeys, 2 weeks post-SIV infection / Epitope-specific responses, Group A monkeys, Post-immunization, Pre-infection / Epitope-specific responses, Group C monkeys, 2 weeks post-SIV infection: ELISPOT; for Epitope-specific responses, Group A monkeys, 2 weeks post-SIV infection / Epitope-specific responses, Group A monkeys, Post-immunization, Pre-infection: Mamu-A*01 positive macaques immunized before and after infection; for Epitope-specific responses, Group A monkeys, Post-immunization, Pre-infection: after DNA immunization, before SIV infection; for Epitope-specific responses, Group C monkeys, 2 weeks post-SIV infection: Mamu-A*01 positive macaques immunized only after infection; for CD8+ T cell response against peptide after DNA immunization: Group A monkeys, ELISPOT after 1st-4th DNA immunization
Description: Each monkey received a total of 4 immunizations consisting of 32.0 μg DNA (3.2 μg of each DNA vector) per immunization spaced 4-8 weeks apart. The epitope specificity of the CD8+ T cell responses was determined by ELISPOT following the 1st, 2nd, 3rd or 4th DNA immunization.
ELISPOTs were performed essentially as described (Roy et al. 2000). Briefly, antibody pairs against rhesus monkey IFNγ (Cytech-BV, Amsterdam, The Netherlands) were used to measure the number of r cells that secrete IFNγ. PBMC were cultured at 2 different dilutions in 96 well nitrocellulose filter plates (Millipore) previously coated with anti-cytokine mAbs. ^2 μg/ml of the appropriate MamuA*01 CTL peptide or pepset (Chiron) was then added.
CD8+ T cell responses were measured by ELISPOT. In A*01 positive monkeys, the average cumulative ELISPOT was determined at each timepoint by measuring responses following stimulation with 10 representative epitopes included in the vaccine. In A*01 negative monkeys, cumulative ELISPOT values were determined using gag and tat peptide pools.

[3] = tested on: SIV gag recombinant protein; test: Proliferation analysis of PBMC; type: in vivo, rhesus macaques; conditions: proliferative responses to SIV gag
Description: At each time point PBMC were isolated from whole blood by density gradient centrifugation over Ficoll-Hypaque and resuspended in complete RPMI media containing 10% human serum (R10 medium). In 96-well flat bottom plates, 2×10^5 PBMC/well were incubated for 6 days with 0.2 μg/well protein in R10 media. PBMC were stimulated 10 μg/ml of SIV gag recombinant protein (Intracel). Sixteen hours before the end of the assay, each well was pulsed with 1 μCi ^3H-thymidine. Cells were harvested and the isotope incorporation measured by scintillation spectroscopy. All assays were performed in triplicates.
Proliferative responses to SIV gag were measured during combined PMPA+DNA vaccine therapy (weeks 0-28) and after discontinuation of therapy (weeks 30-46 to date).

SIV/DeltaB670 = test: Plasma viral loads (real time PCR) after SIV challenge, PMPA + DNA vaccine immunotherapy
MHC = conditions: Table 1 characteristics, from references; cited from earlier work

Row | Compound | immunogenicity [1] | Epitope-specific responses, Group A monkeys, 2 weeks post-SIV infection [2] | Epitope-specific responses, Group A monkeys, Post-immunization, Pre-infection [2] | Epitope-specific responses, Group C monkeys, 2 weeks post-SIV infection [2] | CD8+ T cell response against peptide after DNA immunization [2] | other results
1 | FRKQNPDIVIYQYMDDLYVG | epitope, strong |  |  |  |  | 
2 | QVPSLQYLA [Vifl44-152QA9] |  | +/+ (A + response = a minimum of 25 spot forming cells/1 × 10^6 PBMC was detected in at least 1 of the 8 monkeys per group) | +/+ (A + response = a minimum of 25 spot forming cells/1 × 10^6 PBMC was detected in at least 1 of the 8 monkeys per group) | NA/+ (A + response = a minimum of 25 spot forming cells/1 × 10^6 PBMC was detected in at least 1 of the 8 monkeys per group) | Significant responses | 
3 | TVPWPNASL [Env622-630TL9] |  | +/+ (A + response = a minimum of 25 spot forming cells/1 × 10^6 PBMC was detected in at least 1 of the 8 monkeys per group) | +/+ (A + response = a minimum of 25 spot forming cells/1 × 10^6 PBMC was detected in at least 1 of the 8 monkeys per group) |  | Significant responses | 
4 | LAPVPIPFA [Gag372-380LA9] |  | +/+ (A + response = a minimum of 25 spot forming cells/1 × 10^6 PBMC was detected in at least 1 of the 8 monkeys per group) | +/+ (A + response = a minimum of 25 spot forming cells/1 × 10^6 PBMC was detected in at least 1 of the 8 monkeys per group) |  | Significant responses | 
5 | RIQRGPGRAFVTIGK | epitopes, highly |  |  |  |  | 
6 | CTPYDINQM [Gag181-189CM9] |  | +/+ (A + response = a minimum of 25 spot forming cells/1 × 10^6 PBMC was detected in at least 1 of the 8 monkeys per group) | +/+ (A + response = a minimum of 25 spot forming cells/1 × 10^6 PBMC was detected in at least 1 of the 8 monkeys per group) | NA/+ (A + response = a minimum of 25 spot forming cells/1 × 10^6 PBMC was detected in at least 1 of the 8 monkeys per group) | Significant responses | 
7 | C[C@H](Cn1cnc2c(N)ncnc21)OCP(=O)(O)O [Group E] |  |  |  |  |  | Average Stimulation Index +/− SE post-therapy (wks 30-46) ([3]; after discontinuing therapy, weeks 30-46): 1.4 +/− 0.2; Average Stimulation Index +/− SE during therapy (wks 0-28) ([3]; combined PMPA + DNA vaccine therapy, weeks 0-28): 1.8 +/− 0.5; Geometric mean virus loads during therapy with DNA vaccines + PMPA (weeks 5-28) (SIV/DeltaB670; weeks 5-28, during therapy): 7,192 no. of copies of viral RNA/ml plasma; Immunotherapeutic efficacy: number of monkeys maintaining virus loads at < 5000 viral RNA copies/ml plasma, during therapy (weeks 5-28) (SIV/DeltaB670; weeks 5-28, during therapy with DNA vaccines + PMPA): 4/8; Geometric mean virus loads after discontinuation of drug and vaccine therapy (weeks 30-46) (SIV/DeltaB670; weeks 30-46, after discontinuation): 38,428 no. of copies of viral RNA/ml plasma; Immunotherapeutic efficacy: number of monkeys maintaining virus loads at < 5000 viral RNA copies/ml plasma, after discontinuation (weeks 30-46) (SIV/DeltaB670; weeks 30-46, after discontinuation of drug and vaccine therapy): 1/8
8 | CAPPGYALL [Env235-243CL9] |  | +/+ (A + response = a minimum of 25 spot forming cells/1 × 10^6 PBMC was detected in at least 1 of the 8 monkeys per group) | +/+ (A + response = a minimum of 25 spot forming cells/1 × 10^6 PBMC was detected in at least 1 of the 8 monkeys per group) | NA/+ (A + response = a minimum of 25 spot forming cells/1 × 10^6 PBMC was detected in at least 1 of the 8 monkeys per group) | Significant responses | 
9 | GSPAIFQYTM [Pol359-365GM10] |  | +/+ (A + response = a minimum of 25 spot forming cells/1 × 10^6 PBMC was detected in at least 1 of the 8 monkeys per group) | +/+ (A + response = a minimum of 25 spot forming cells/1 × 10^6 PBMC was detected in at least 1 of the 8 monkeys per group) |  | Significant responses | 
10 | ILKEPVHGVY | MHC, strong |  |  |  |  | binding affinity to MHC (MHC): CTL epitope, high
11 | LLWKGEGAV | MHC, strong |  |  |  |  | binding affinity to MHC (MHC): CTL epitope, high
12 | STPESANL [Tat28-35SL8] |  | +/+ (A + response = a minimum of 25 spot forming cells/1 × 10^6 PBMC was detected in at least 1 of the 8 monkeys per group) | +/+ (A + response = a minimum of 25 spot forming cells/1 × 10^6 PBMC was detected in at least 1 of the 8 monkeys per group) | NA/+ (A + response = a minimum of 25 spot forming cells/1 × 10^6 PBMC was detected in at least 1 of the 8 monkeys per group) | Significant responses | 

From patent publication US20030124718A1, “Vaccine composition” (priority 2001, published 2003)
